Measured values: patent US20190367520A1, “NEW COMPOUND HAVING FGFR INHIBITORY ACTIVITY AND PREPARATION AND APPLICATION THEREOF” (SHANGHAI INSTITUTE OF MATERIA MEDICA, CHINESE ACADEMY OF …, priority 2016, published 2019)
pIC50: −log10 of the molar value.

Tests used:
[1] = target: FGFR4 kinase domain recombinant protein (Homo sapiens, UniProt P22455); experiment: FGFR4 enzyme activity at molecular level (ELISA, Poly(Glu,Tyr) 4:1 substrate)
Method: (§1) The plate was placed at 37° C. for 12-16 hours. The liquid in the well was discarded, the plate was washed, and the panel was washed three times with 200 μL/well of T-PBS (PBS containing 0.1% Tween-20) for 5 minutes each time.
(§2) 50 μL of ATP solution diluted with reaction buffer (50 mM HEPES pH 7.4, 50 mM MgCl2, 0.5 mM MnCl2, 0.2 mM Na3VO4, 1 mM DTT) was added to each well to a final concentration of 5 μM. The compound was diluted to a suitable concentration in DMSO, 1 μL/well or containing the corresponding concentration of DMSO (negative control well), and the FGFR1, FGFR4 kinase domain recombinant protein diluted in 49 μL of reaction buffer was added to initiate the reaction. Two control wells without ATP were required for each experiment. The reaction was carried out for 1 hour at 37° C. on a shaker (100 rpm). The plate was washed three times with T-PBS. Primary antibody, PY99 dilution was added at 100 μL/well and shaken at 37° C. for 0.5 hour. The plate was washed three times with T-PBS. Secondary antibody, horseradish peroxidase-labeled goat anti-mouse IgG dilution was added at 100 μL/well, and shaken at 37° C. for 0.5 hour. […] (Ultrasound was required for the dissolution of OPD, and the chromogenic solution needed to be prepared when used). 2 M H2SO4 was added at 50 μL/well to quench the reaction and a tunable wavelength microplate reader SPECTRA MAX 190 was used at a wavelength of 490 nm.
(§3) The inhibition rate of the sample was obtained by the following formula:
(§4) The IC50 value was obtained by four-parameter regression using the software attached to the microplate reader.

EGFR = EGFR (Homo sapiens, UniProt P00533); experiment: Inhibitory activity on EGFR enzyme activity; type: biochemical
[2] = test system: human lung cancer NCI-H1581 transplanted tumor; experiment: Growth of transplanted tumor of human lung cancer NCI-H1581 in nude mice; type: in vivo, nude mouse; conditions: for T/C (%) relative tumor proliferation rate: d14; for body weight change of the animals / tumor volume change of the animals: po, 14 days
Method: The tumor tissue in the vigorous growth period was cut into about 1.5 mm^3, and inoculated subcutaneously in the right axilla of nude mouse under aseptic conditions. The diameter of transplanted subcutaneously tumor in the nude mouse was measured with a vernier caliper. The mice were randomly divided into groups after the tumor was grown to an average volume of about 90 mm 3. The compound No. 12 obtained in Example 12 was orally administered once a day at a dose of 100 mg/kg and 20 mg/kg, respectively, for 14 days, and the growth inhibition effects of compound NO. 12 on subcutaneously transplanted tumor in human lung cancer NCI-H1581 nude mouse were measured.
In the solvent control group, an equal amount of physiological saline was given. During the entire experiment, the diameter of the transplanted tumor was measured twice a week, and the body weight of the mice was weighed. The tumor volume (TV) is calculated as: TV=½×a×b^2, where a and b represent length and width, respectively. According to the measured results, the relative tumor volume (RTV) was calculated as: RTV=Vt/V0, wherein V0 was the tumor volume measured when the mouse was administered in cage (i.e. d0), Vt was the tumor volume at each measurement.
On the day of the end of the experiment, 2 hours after administration, blood samples and tumor tissues of each group were collected and preserved.

[3] = target: FGFR1 kinase domain recombinant protein (Homo sapiens, UniProt P11362); experiment: FGFR1 enzyme activity at molecular level (ELISA, Poly(Glu,Tyr) 4:1 substrate)
Sequence of FGFR1 kinase domain recombinant protein (P11362 478-767 limits assumed): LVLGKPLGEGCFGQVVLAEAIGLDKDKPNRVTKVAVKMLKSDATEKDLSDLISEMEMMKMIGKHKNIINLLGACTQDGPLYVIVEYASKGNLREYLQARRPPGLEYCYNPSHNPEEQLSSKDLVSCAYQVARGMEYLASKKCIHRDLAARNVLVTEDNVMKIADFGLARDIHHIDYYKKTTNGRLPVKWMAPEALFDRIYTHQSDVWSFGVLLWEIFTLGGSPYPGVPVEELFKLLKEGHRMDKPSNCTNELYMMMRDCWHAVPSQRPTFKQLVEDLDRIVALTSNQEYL
Method: as §1, §2, §3, §4

Sequence of EGFR (P00533 25-1210, species assumed): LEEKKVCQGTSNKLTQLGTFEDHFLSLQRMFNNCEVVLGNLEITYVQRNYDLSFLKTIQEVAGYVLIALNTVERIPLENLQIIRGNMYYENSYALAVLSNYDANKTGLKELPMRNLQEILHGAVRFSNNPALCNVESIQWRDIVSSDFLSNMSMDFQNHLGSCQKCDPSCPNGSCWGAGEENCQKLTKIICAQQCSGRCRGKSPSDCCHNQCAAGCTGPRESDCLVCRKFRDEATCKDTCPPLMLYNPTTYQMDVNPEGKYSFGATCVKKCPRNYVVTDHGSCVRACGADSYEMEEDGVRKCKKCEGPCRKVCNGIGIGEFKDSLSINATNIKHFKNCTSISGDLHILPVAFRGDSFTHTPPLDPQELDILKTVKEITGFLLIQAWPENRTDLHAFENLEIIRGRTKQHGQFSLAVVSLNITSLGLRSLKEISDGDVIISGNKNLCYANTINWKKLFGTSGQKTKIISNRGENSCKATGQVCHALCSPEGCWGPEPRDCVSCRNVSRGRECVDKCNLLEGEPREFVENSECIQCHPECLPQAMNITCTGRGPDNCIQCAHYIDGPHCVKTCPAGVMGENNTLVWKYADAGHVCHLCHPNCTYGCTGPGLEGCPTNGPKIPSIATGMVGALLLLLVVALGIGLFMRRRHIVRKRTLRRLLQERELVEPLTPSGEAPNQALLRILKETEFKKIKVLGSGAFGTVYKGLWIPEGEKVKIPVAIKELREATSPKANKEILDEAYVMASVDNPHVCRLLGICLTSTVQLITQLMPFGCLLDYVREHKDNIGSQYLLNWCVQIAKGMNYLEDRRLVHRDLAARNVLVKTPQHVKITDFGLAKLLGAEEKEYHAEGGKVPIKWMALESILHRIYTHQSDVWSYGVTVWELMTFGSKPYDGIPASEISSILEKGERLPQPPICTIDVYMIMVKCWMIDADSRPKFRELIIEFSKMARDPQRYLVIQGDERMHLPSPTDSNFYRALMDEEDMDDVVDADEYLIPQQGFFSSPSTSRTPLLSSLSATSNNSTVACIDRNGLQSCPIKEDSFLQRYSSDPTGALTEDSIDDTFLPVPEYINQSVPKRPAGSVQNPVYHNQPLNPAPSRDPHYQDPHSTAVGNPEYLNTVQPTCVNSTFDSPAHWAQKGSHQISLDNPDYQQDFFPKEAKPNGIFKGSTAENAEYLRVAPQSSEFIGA
Sequence of FGFR4 kinase domain recombinant protein (P22455 467-755 limits assumed): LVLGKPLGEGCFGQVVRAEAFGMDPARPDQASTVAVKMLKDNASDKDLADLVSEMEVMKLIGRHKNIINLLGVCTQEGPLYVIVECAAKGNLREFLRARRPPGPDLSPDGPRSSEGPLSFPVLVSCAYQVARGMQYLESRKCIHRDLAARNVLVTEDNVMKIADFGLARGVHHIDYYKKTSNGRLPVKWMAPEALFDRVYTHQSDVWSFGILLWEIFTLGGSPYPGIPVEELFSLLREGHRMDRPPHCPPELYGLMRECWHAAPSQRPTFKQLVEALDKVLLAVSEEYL

C=CC(=O)N1CC[C@H](n2cc(-c3cc4cc(C)cc(OC)c4s3)c3c(N)ncnc32)C1 [NO. 12, (S)-1-(3-(4-amino-5-(7-methoxy-5-methylbenzothiophene-2-yl)-7H-pyrrole[2,3-d]pyrimidine-7-yl)pyrrolidine-1-yl)prop-2-en-1-one]
pIC50 [1]: > 8.00
pIC50 (EGFR): < 6.00
EGFR inhibitory activity (in words) (EGFR; conclusion from Table 3): substantially no EGFR inhibitory activity
T/C (%) relative tumor proliferation rate ([2]; 20 mg/kg qd/14 po): 31.28%
body weight change of the animals ([2]; 20 mg/kg): 24.2%
tumor volume change of the animals ([2]; 20 mg/kg): 1500%
T/C (%) relative tumor proliferation rate ([2]; 100 mg/kg qd/14 po): 2.9%
body weight change of the animals ([2]; 100 mg/kg): −5.9%
tumor volume change of the animals ([2]; 100 mg/kg): 54.8%
pIC50 [3]: > 8.00
